Values quoted from earlier work, collected in PubChem BioAssay AID1259409 (Chemical Carcinogenesis Research Information System (CCRIS), 2018).

Tested on: rodent chemically induced tumor inhibition, incidence and multiplicity
Assay: CCRIS tumor inhibitor studies

C=Cc1c(C)c2[n-]c1=CC1=NC(=CC3=C(C)C(=C([O-])[O-])C(=N3)C(CC(=O)[O-])=C3N=C(C=2)C(C)C3CCC(=O)[O-])C(CC)=C1C.[Cu+2].[Na+].[Na+].[Na+] (stereo not drawn)
tumour outcome (control, treated, inhibition, significance) (Carcinogen: 2,2'-DIHYDROXY-DI-N-PROPYLNITROSAMINE, 53609-64-6, N-ETHYL-N-HYDROXYETHYLNITROSAMINE, 13147-25-6, 3,2'-DIMETHYL-1,4-, Carcinogen: 2,2'-DIHYDROXY-DI-N-PROPYLNITROSAMINE, 53609-64-6, N-ETHYL-N-HYDROXYETHYLNITROSAMINE, 13147-25-6, 3,2'-DIMETHYL-1,4-, Dose [Inhibitor]: 0, 1% IN DIET FOR 4 WK BEGINNING 1 D PRIOR TO FIRST CARCINOGEN DOSE (STUDY DURATION: 36 WK), Route [Inhibitor]: ORAL, Species: RAT, Strain/Sex: F344/MALE, Target Tissue: Type of Lesion: KIDNEY: ADENOMA, Dose [Carcinogen]: 1000 MG/KG BW DHPN TWICE, 1500 MG/KG EHEN TWICE, 75 MG/KG BW DMAB 3 TIMES, SEQUENTIALLY OVER 3 WK, Promoter: NONE USED): 6/10 (60%), 6/13 (46%), 23%, not significant
tumour outcome (control, treated, inhibition, significance) (Carcinogen: 2,2'-DIHYDROXY-DI-N-PROPYLNITROSAMINE, 53609-64-6, N-ETHYL-N-HYDROXYETHYLNITROSAMINE, 13147-25-6, 3,2'-DIMETHYL-1,4-, Carcinogen: 2,2'-DIHYDROXY-DI-N-PROPYLNITROSAMINE, 53609-64-6, N-ETHYL-N-HYDROXYETHYLNITROSAMINE, 13147-25-6, 3,2'-DIMETHYL-1,4-, Dose [Inhibitor]: 0, 1% IN DIET FOR 4 WK BEGINNING 1 D PRIOR TO FIRST CARCINOGEN DOSE (STUDY DURATION: 36 WK), Route [Inhibitor]: ORAL, Species: RAT, Strain/Sex: F344/MALE, Target Tissue: Type of Lesion: LUNG: ADENOMA, Dose [Carcinogen]: 1000 MG/KG BW DHPN TWICE, 1500 MG/KG EHEN TWICE, 75 MG/KG BW DMAB 3 TIMES, SEQUENTIALLY OVER 3 WK, Promoter: NONE USED): 5/10 (50%), 8/13 (62%), -24%, not significant
tumour outcome (control, treated, inhibition, significance) (Carcinogen: 2-AMINO-1-METHYL-6-PHENYLIMIDAZO[4,5-B]PYRIDINE, 105650-23-5, Dose [Inhibitor]: 0, 1% IN DIET FOR 54 WK (STUDY DURATION: 54 WK), Route [Inhibitor]: ORAL, Species: RAT, Strain/Sex: F344/FEMALE, Target Tissue: Type of Lesion: COLON: ADENOMA, Dose [Carcinogen]: 0.02% IN DIET FOR 54 WK, Promoter: NONE USED): 2/20 (10%), 4/20 (20%), -100%, not significant
tumour outcome (control, treated, inhibition, significance) (Carcinogen: 2-AMINO-1-METHYL-6-PHENYLIMIDAZO[4,5-B]PYRIDINE, 105650-23-5, Dose [Inhibitor]: 0, 1% IN DIET FOR 54 WK (STUDY DURATION: 54 WK), Route [Inhibitor]: ORAL, Species: RAT, Strain/Sex: F344/FEMALE, Target Tissue: Type of Lesion: MAMMARY GLAND: ADENOCARCINOMA, Dose [Carcinogen]: 0.02% IN DIET FOR 54 WK, Promoter: NONE USED): 8/20 (40%), 3/20 (15%), 63%, not significant
tumour outcome (control, treated, inhibition, significance) (Carcinogen: 2-AMINO-1-METHYL-6-PHENYLIMIDAZO[4,5-B]PYRIDINE, 105650-23-5, Dose [Inhibitor]: 0, 1% IN DIET FOR 54 WK (STUDY DURATION: 54 WK), Route [Inhibitor]: ORAL, Species: RAT, Strain/Sex: F344/FEMALE, Target Tissue: Type of Lesion: MAMMARY GLAND: FIBROADENOMA, Dose [Carcinogen]: 0.02% IN DIET FOR 54 WK, Promoter: NONE USED): 2/20 (10%), 0/20 (0%), 100%, not significant
tumour outcome (control, treated, inhibition, significance) (Carcinogen: 7,12-DIMETHYLBENZ[A]ANTHRACENE [57-97-6], Dose [Inhibitor]: 0.5% IN 0.2 ML DMSO/ACETONE (15:85) 1 D PRIOR TO CARCINOGEN DOSE (STUDY DURATION: 31 WK), Route [Inhibitor]: DERMAL, Species: MOUSE, Strain/Sex: ICR/FEMALE, Target Tissue: Type of Lesion: SKIN: TUMOR, Dose [Carcinogen]: 0.2 UMOL ONCE (STUDY DURATION: 31 WK), Promoter: 12-O-TETRADECANOYLPHORBOL-13-ACETATE [16561-29-8]): 100%, 87%, 13%, not significant
tumour outcome (control, treated, inhibition, significance) (Carcinogen: 7,12-DIMETHYLBENZ[A]ANTHRACENE [57-97-6], Dose [Inhibitor]: 0.5% IN 0.2 ML DMSO/ACETONE (15:85) 1 D PRIOR TO CARCINOGEN DOSE AND 10 MIN PRIOR TO EACH PROMOTER DOSE FOR 30 WK (STUDY, Route [Inhibitor]: DERMAL, Species: MOUSE, Strain/Sex: ICR/FEMALE, Target Tissue: Type of Lesion: SKIN: TUMOR, Dose [Carcinogen]: 0.2 UMOL ONCE (STUDY DURATION: 31 WK), Promoter: 12-O-TETRADECANOYLPHORBOL-13-ACETATE [16561-29-8]): 100%, 27%, 73%, p<0.005
tumour outcome (control, treated, inhibition, significance) (Carcinogen: 7,12-DIMETHYLBENZ[A]ANTHRACENE [57-97-6], Dose [Inhibitor]: 0.5% IN 0.2 ML DMSO/ACETONE (15:85) 10 MIN PRIOR TO EACH PROMOTER DOSE FOR 30 WK (STUDY DURATION: 30 WK), Route [Inhibitor]: DERMAL, Species: MOUSE, Strain/Sex: ICR/FEMALE, Target Tissue: Type of Lesion: SKIN: TUMOR, Dose [Carcinogen]: 0.2 UMOL ONCE (STUDY DURATION: 30 WK), Promoter: 12-O-TETRADECANOYLPHORBOL-13-ACETATE [16561-29-8]): 100%, 40%, 60%, p<0.005
tumour outcome (control, treated, inhibition, significance) (Carcinogen: BENZO[A]PYRENE-7,8-DIHYDRODIOL-9,10-EPOXIDE, 58917-67-2, Dose [Inhibitor]: 0, 15 MG/KG BW ONCE 30 MIN PRIOR TO CARCINOGEN DOSE (STUDY DURATION: 24 WK), Route [Inhibitor]: GAVAGE, Species: MOUSE, Strain/Sex: ICR/FEMALE, Target Tissue: Type of Lesion: SKIN: PAPILLOMA, Dose [Carcinogen]: 0.1 UMOL ONCE, Promoter: 12-O-TETRADECANOYLPHORBOL-13-ACETATE, 16561-29-8): 98%, 70%, 29%, not calculated
tumour outcome (control, treated, inhibition, significance) (Carcinogen: BENZO[A]PYRENE, 50-32-8, Dose [Inhibitor]: 0, 15 MG/KG BW ONCE 30 MIN PRIOR TO CARCINOGEN DOSE (STUDY DURATION: 40 WK), Route [Inhibitor]: GAVAGE, Species: MOUSE, Strain/Sex: ICR/FEMALE, Target Tissue: Type of Lesion: SKIN: PAPILLOMA, Dose [Carcinogen]: 0.3 UMOL ONCE, Promoter: 12-O-TETRADECANOYLPHORBOL-13-ACETATE, 16561-29-8): 97%, 78%, 20%, not calculated
tumour outcome (control, treated, inhibition, significance) (Carcinogen: DIETHYLNITROSAMINE, 55-18-5, Dose [Inhibitor]: 0, 2000 PPM IN DIET FOR 4 WK DURING INITIATION (STUDY DURATION: 24 WK), Route [Inhibitor]: ORAL, Species: RAT, Strain/Sex: F344/MALE, Target Tissue: Type of Lesion: LIVER: ADENOMA, Dose [Carcinogen]: 100 MG/KG BW 1/WK FOR 3 WK, Promoter: PHENOBARBITAL, 50-06-6): 95%, 70%, 26%, p<0.05
tumour outcome (control, treated, inhibition, significance) (Carcinogen: DIETHYLNITROSAMINE, 55-18-5, Dose [Inhibitor]: 0, 2000 PPM IN DIET FOR 4 WK DURING INITIATION (STUDY DURATION: 24 WK), Route [Inhibitor]: ORAL, Species: RAT, Strain/Sex: F344/MALE, Target Tissue: Type of Lesion: LIVER: CARCINOMA, Dose [Carcinogen]: 100 MG/KG BW 1/WK FOR 3 WK, Promoter: PHENOBARBITAL, 50-06-6): 70%, 60%, 14%, not significant
tumour outcome (control, treated, inhibition, significance) (Carcinogen: DIETHYLNITROSAMINE, 55-18-5, Dose [Inhibitor]: 0, 2000 PPM IN DIET FOR 20 WK BEGINNING 1 WK POST CARCINOGEN TREATMENT (STUDY DURATION: 24 WK), Route [Inhibitor]: ORAL, Species: RAT, Strain/Sex: F344/MALE, Target Tissue: Type of Lesion: LIVER: ADENOMA, Dose [Carcinogen]: 100 MG/KG BW 1/WK FOR 3 WK, Promoter: NONE USED): 13%, 13%, 0%, not significant
tumour outcome (control, treated, inhibition, significance) (Carcinogen: DIETHYLNITROSAMINE, 55-18-5, Dose [Inhibitor]: 0, 2000 PPM IN DIET FOR 20 WK BEGINNING 1 WK POST CARCINOGEN TREATMENT (STUDY DURATION: 24 WK), Route [Inhibitor]: ORAL, Species: RAT, Strain/Sex: F344/MALE, Target Tissue: Type of Lesion: LIVER: ADENOMA, Dose [Carcinogen]: 100 MG/KG BW 1/WK FOR 3 WK, Promoter: PHENOBARBITAL, 50-06-6): 95%, 63%, 34%, p<0.02
tumour outcome (control, treated, inhibition, significance) (Carcinogen: DIETHYLNITROSAMINE, 55-18-5, Dose [Inhibitor]: 0, 2000 PPM IN DIET FOR 20 WK BEGINNING 1 WK POST CARCINOGEN TREATMENT (STUDY DURATION: 24 WK), Route [Inhibitor]: ORAL, Species: RAT, Strain/Sex: F344/MALE, Target Tissue: Type of Lesion: LIVER: CARCINOMA, Dose [Carcinogen]: 100 MG/KG BW 1/WK FOR 3 WK, Promoter: NONE USED): 29%, 31%, -7%, not significant
tumour outcome (control, treated, inhibition, significance) (Carcinogen: DIETHYLNITROSAMINE, 55-18-5, Dose [Inhibitor]: 0, 2000 PPM IN DIET FOR 20 WK BEGINNING 1 WK POST CARCINOGEN TREATMENT (STUDY DURATION: 24 WK), Route [Inhibitor]: ORAL, Species: RAT, Strain/Sex: F344/MALE, Target Tissue: Type of Lesion: LIVER: CARCINOMA, Dose [Carcinogen]: 100 MG/KG BW 1/WK FOR 3 WK, Promoter: PHENOBARBITAL, 50-06-6): 70%, 63%, 10%, not significant
tumour outcome (control, treated, inhibition, significance) (Dose [Inhibitor]: 0, 500 PPM IN DIET FOR 2 WK ADMINISTERED WITH CARCINOGEN (STUDY DURATION: 9 MO), Route [Inhibitor]: ORAL, Species: FISH, Strain/Sex: RAINBOW TROUT/MALE, FEMALE, Target Tissue: Type of Lesion: LIVER: TUMOR, Promoter: NONE USED): 16%, 12%, 25%, p=0.29
tumour outcome (control, treated, inhibition, significance) (Dose [Inhibitor]: 0, 500 PPM IN DIET FOR 2 WK ADMINISTERED WITH CARCINOGEN (STUDY DURATION: 9 Mo), Route [Inhibitor]: ORAL, Species: FISH, Strain/Sex: RAINBOW TROUT/MALE, FEMALE, Target Tissue: Type of Lesion: LIVER: TUMOR, Promoter: NONE USED): 7%, 3%, 57%, p=0.04
